Experimental data reported in PMC4186413, “Identification of metabolic pathways and enzyme systems involved in the in vitro human hepatic metabolism of dronedarone, a potent new oral antiarrhythmic drug” (Pharmacology Research & Perspectives, 2014).

What was measured:
Type in all cases: in vitro ADME
FMO-1, -3, and -5 = assay: Oxidation by recombinant human FMOs; settings: 1 mg/mL, 5 μmol/L, 30 min, NADPH
From the text: (§1) Recombinant human CYPs (Supersomes™; BD Gentes, Woburn, MA: CYP1A1, CYP1A2, CYP2A6, CYP2B6, CYP2C8, CYP2C9, CYP2C18, CYP2C19, CYP2D6, CYP2E1, CYP3A4 and CYP3A5), FMOs (Supersomes™: FMO1, FMO3, FMO5), MAOs (Supersomes™: MAO-A and MAO-B), and UGTs (Supersomes™: UGT1A1, UGT1A3, UGT1A4, UGT1A6, UGT1A7, UGT1A8, UGT1A9, UGT1A10, UGT2B4, UGT2B7, UGT2B15, and UGT2B17) expressed in baculovirus-infected insect cells and control microsomes from insect cells infected with wild-type baculovirus were all obtained from BD Gentest (Woburn, MA).
(§2) For oxidative pathways, the assay mixture was composed of human liver microsomes (1 mg·m·L^−1) or microsomes of baculovirus-infected cells expressing human enzymes (100 pmol·mL^−1 for CYPs and 1 mg·mL^−1 for FMOs and MAOs), nicotinamide adenine dinucleotide phosphate reduced form (NADPH) (1 mmol/L), 100 mmol/L potassium phosphate (pH 7.4), and 5 μmol/L of the investigated compound dissolved in DMSO in a final volume of 500 μL.
(§3) The final concentration of DMSO in the reaction mixture was less than 1% (v/v). Initial rate conditions with respect to time and protein concentration for both the disappearance of unchanged drug and the formation of respective metabolites were established in preliminary studies. The enzyme reaction was initiated by addition of NADPH (10 mmol/L aqueous solution) to achieve a final concentration of 1 mmol/L for oxidative CYP- and FMO-dependent reactions or by the drug for MAO-dependent reactions, incubated at 37°C and stopped after 0–30 min by addition of one volume of ice-cold acetonitrile.
(§4) In human liver microsomes and recombinant isoforms, the percentage of metabolism was determined on the basis of unchanged drug disappearance, using the following equation [drawing 1] where UDt = 30 min represents the unchanged drug peak area after a 30-min incubation period and UDt = 0, the unchanged drug peak area at t = 0.
(§5) To identify the specific isoforms that are capable of oxidizing dronedarone and its metabolites, assays were performed using c-DNA-expressed isoforms belonging to CYP- (CYP1A1, -1A2, -2A6, -2B6, -C8, -2C9, -2C18, -2C19, -2D6, -2E1, -3A4, and -3A5), FMO- (FMO-1, -3, and -5) and MAO- (MAO-A and MAO-B) families.
(§6) Figure 5 Contribution of individual CYPs, FMOs and MAOs to the oxidation of dronedarone and its metabolites. Individual CYPs (100 pmol/mL), FMOs (1 mg/mL) and MAOs (1 mg/mL) were incubated with either dronedarone (A) or its metabolites, N-debutyl-dronedarone (B), propanoic acid-dronedarone (C), and phenol-dronedarone (D), at a concentration of 5 μmol/L, for 30 min at 37°C in the presence of NADPH, except for MAOs where incubations were performed in the absence of cofactor. Unchanged drugs were quantified by LC/MS-MS relative to the synthetic references as described in Materials and Methods. Data are expressed as the percentage of oxidation.

[1] = Oxidative metabolism by human hepatic microsomal fractions with or without NADPH; settings: 1 mg·mL^−1, 5 μmol/L, 30 min
Protocol: Human hepatic microsomal fractions were obtained from a large pool of human liver (150 individuals) prepared by BD Gentest-Biosciences (BD UltraPool™ HLM 150 – catalogue reference, 452118 Easy Count Box, Woburn, MA). This pooled human liver microsomal batch was also validated internally by the use of FDA-recommended CYP probes (FDA guidance for Industry, draft guidance February 2012).
as §2, §3
After removal of the proteins by centrifugation at 10,000 rpm for 10 min, a portion of the supernatant was analyzed by LC-UV-MS.
as §4
Dronedarone and its metabolites were incubated over 30 min with human hepatic microsomal fractions (1 mg·mL^−1) at a final concentration of 5 μmol/L, in the absence or the presence of 1 mmol/L NADPH, the cofactor for CYP- and FMO-dependent reactions.

MAO-A and MAO-B = assay: Oxidation by recombinant human MAOs; settings: 1 mg/mL, 5 μmol/L, 30 min, no cofactor
From the text: as §1, §2, §3, §4, §5
Figure 5 Contribution of individual CYPs, FMOs and MAOs to the oxidation of dronedarone and its metabolites. […] Unchanged drugs were quantified by LC/MS-MS relative to the synthetic references as described in Materials and Methods. Data are expressed as the percentage of oxidation.

[2] = tested on: CYP1A1, -1A2, -2A6, -2B6, -C8, -2C9, -2C18, -2C19, -2D6, -2E1, -3A4, and -3A5; assay: Oxidation by the panel of recombinant human CYP isoforms; settings: 100 pmol/mL, 5 μmol/L, 30 min, NADPH; for Oxidation by the other CYP isoforms of the panel: isoforms other than those named for the drug
From the text: as §1, §2, §3, §4, §5, §6

Row | Oxidation by FMOs (FMO-1, -3, and -5) | Parent drug metabolized by human hepatic microsomes ([1]; absence of NADPH) | Parent drug metabolized by human hepatic microsomes ([1]; presence of 1 mmol/L NADPH) | Oxidation by MAOs (MAO-A and MAO-B) | Metabolism by any of the different CYPs [2] | Compound | Oxidation by the other CYP isoforms of the panel [2]
1 | not metabolized | No metabolism was observed | No metabolism was observed | not metabolized | not metabolized | CCCCN(CCCC)CCCOc1ccc(C(=O)O)cc1 [C-dealkyl-dronedarone] | 
2 | not involved | not metabolized | ~60% | not involved |  | CCCCc1oc2ccc(NS(C)(=O)=O)cc2c1C(=O)c1ccc(OCCCN(CCCC)CCCC)cc1.Cl [Dronedarone, N-(2-Butyl-3-(4-(3-(dibutylamino)propoxy)benzoyl)-5-benzofuranyl)methanesulfonamide, hydrochloride] | less than 15%
3 | contributed to a very small extent | very slow | very slow | contributed to a very small extent |  | CCCCc1oc2ccc(NS(C)(=O)=O)cc2c1C(=O)c1ccc(O)cc1 [Phenol-dronedarone] | contributed to a very small extent

Row | Compound | Oxidation by FMOs (FMO-1, -3, and -5) | Parent drug metabolized by human hepatic microsomes ([1]; absence of NADPH) | Parent drug metabolized by human hepatic microsomes ([1]; presence of 1 mmol/L NADPH) | Oxidation by MAOs (MAO-A and MAO-B) | Metabolism by any of the different CYPs [2] | Oxidation by the other CYP isoforms of the panel [2]
4 | CCCCNCCCOc1ccc(C(=O)c2c(CCCC)oc3ccc(NS(C)(=O)=O)cc23)cc1 [N-debutyl-dronedarone] | Neither other CYPs nor FMOs metabolized N-debutyl-dronedarone to any significant extent | 25–30% | 25–30% |  |  | Neither other CYPs nor FMOs metabolized N-debutyl-dronedarone to any significant extent
5 | CCCCc1oc2ccc(NS(C)(=O)=O)cc2c1C(=O)c1ccc(OCCC(=O)O)cc1 [Propanoic acid-dronedarone] | Neither other CYPs, nor FMOs and MAOs metabolized propanoic acid-dronedarone to any significant extent | No metabolism occurred | 50% | Neither other CYPs, nor FMOs and MAOs metabolized propanoic acid-dronedarone to any significant extent |  | Neither other CYPs, nor FMOs and MAOs metabolized propanoic acid-dronedarone to any significant extent
